Experimental data as given in patent publication US20120076859A1, “Targeted Lung Delivery of Citrulline and/or Another Nitric Oxide Precursor and a Method for Treatment of Pulmonary Deficiency of Nitric Oxide in Cystic Fibrosis and Other Pulmonary Diseases” (ACTIVAERO GMBH, priority 2010, published 2012).

Assays:
[1] = tested on: exhaled nitric oxide; conditions: inhaled L-arginine; healthy and asthmatic subjects; cited from earlier work
[2] = tested on: exhaled nitric oxide / pulmonary function; conditions: cystic fibrosis patients, cited from earlier work
[3] = single oral dose; cystic fibrosis and healthy subjects; cited from earlier work
[4] = inhalation of arginine solution; cystic fibrosis patients; cited from earlier work
[5] = tested on: isolated lungs of chronically hypoxic newborn pigs; conditions: perfusion of isolated lungs; cited from earlier work
[6] = Storage stability of ready to use formulation in LDPE vials; format: physicochemical; conditions: room temperature; LDPE vials covered with aluminum overwrap
Protocol: In alternative, the liquid form of the highly concentrated citrulline or another nitric oxide precursor may also be conveniently supplied as a ready to use formulation stored and supplied in 1 mL “Blow-fill-Seal” vial, made of plastic polyethylene material, such as low density polyethylene (LDPE). The selected material for such ready to use formulation prevents absorption of the active component onto the plastic walls of the vial, which is a common occurrence with other plastic materials. The 1 mL fill volume of the vial provides an exact amount of active component that is safe and efficacious for the patient convenience provided, of course, that the therapeutically effective amount of the active component can be supplied in 1 mL dilution. In the above described type of vials covered with an aluminum overwrap, citrulline or nitric oxide precursors for inhalation are stable for at least 9 months and 12 months, respectively, at room temperature. There is no loss of strength under these conditions. At accelerated conditions where the vials are exposed to a temperature of 40° C. and 75% relative humidity, all formulations for extended shelf-life will be shown to retain their full activity for at least 6 months and preferably or one year.

| stability (shelf-life) [6] | SMILES | exhaled nitric oxide [1] | time of maximum effect on exhaled nitric oxide [1] [min] | plasma amino acid concentration of L-arginine ([2]; after single inhalation) | FEV1 ([2]; single inhalation) | exhaled nitric oxide concentrations ([2]; single inhalation) | plasma L-arginine concentration [3] | adverse effects of inhalation therapy [4] | nitric oxide production [5] |
| --- | --- | --- | --- | --- | --- | --- | --- | --- | --- |
|  | N=C(N)NCCC[C@H](N)C(=O)O [L-arginine] | increased exhaled nitric oxide in a dose-dependent fashion | 60 | did not change significantly over time | sustained improvement of FEV1 | significantly increasing exhaled nitric oxide concentrations | significant increase of plasma L-arginine concentration | cough, airway inflammation and severe deterioration of the patients general conditions | increase of nitric oxide production |
| at least 9 months | NC(=O)NCCC[C@H](N)C(=O)O [citrulline, L-(+)-2-amino-5-ureidovaleric acid] |  |  |  |  |  |  |  |  |
